Counter-ions that a name gives are not always drawn. Like-named read-outs stand apart in the source and are kept apart here.
Experiments:
[1] = test system: enzymes having the --SH group; conditions: result in words; cited from earlier work
[2] = cited from earlier work
[3] = fraction of unbound drug (dialysis); assay type: in vitro ADME; conditions: predialysis concentration of 25 μg/ml; read-out: fu (fraction of unbound drug)
Experimental: ^c determined at a predialysis concentration of 25 μg/ml
peak, tmax absorption time to the peak, fu fraction of unbound

[4] = GHB average pharmacokinetic parameters after oral administration of different doses (immediate release) to 8 healthy volunteers; assay type: in vivo, human (healthy volunteers); conditions: for Tmax / CL/F / MRT / half-life: human, plasma; for CL/F: read-out: CLo (oral clearance); for MRT: read-out: MRT (average residence time) (converted); for AUC: average (SD); for absorption: result in words, immediate release / aqueous liquid solutions
Excerpt: GHB Average pharmacokinetic parameters after
administration of different doses to 8 healthy volunteers

[5] = In vitro dissolution test (paddle test); assay type: physicochemical; conditions: aqueous liquid solutions / formulations on the market; instantaneous
Experimental: The evaluation test in vitro is carried out with a dissolution test consistent with the apparatus described in the European Pharmacopoeia 2° ed. or UPS XXII ed. ("paddle test"). The dosage, evaluated in the time after 1, 2, 3, 4, 6 and 8 hours, is carried out with 1N hydrochloric acid, taking a known amount from the dissolution medium.
medium: distilled H20 900 ml.
Data obtained are the following (expressed as GHBNa percentage with respect to the total tablet content): […]

[6] = oral 25 mg/kg, normalized at 12.5 mg/kg
[7] = oral 50 mg/kg, normalized at 12.5 mg/kg

For `CCN(CC)C(=S)SSC(=S)N(CC)CC` [Disulfiram], which enzyme inhibition [1] is on record?
Its enzyme inhibition is “alters the activity of all enzymes having the --SH group”.

What about the toxicity ([2]; Disulfiram by itself, therapeutical doses) of the same molecule?
The toxicity was “scarcely toxic”.

And the “blood acetaldehyde concentration vs alcohol dose alone” value ([2]; alcohol administered after Disulfiram pretreatment)?
Its value is “five to ten times higher”.

What about the severe events occurred ([2]; as a consequence of Disulfiram treatment) of the same molecule?
The severe events occurred was “depression, myocardial infarction, sudden and unexplained fatalities”.

What about the “side effects (may cause)” value ([2]; in vivo) of the same molecule?
The value was “acneiform eruptions, allergic dermatitis, urticaria, lassitude, fatigue, tremor, restlessnes, reduced sexual potency, gastric or digestive disturbances”.

Which results are given for `O=C(O)CCCO` [GHB, gamma hydroxy butyric acid]?
fraction unbound [3]: 0.99; Tmax ([4]; oral 12.5 mg/kg, average value (range), read-out: tmax (absorption time to the peak) (converted)): 25 min; CL/F ([4]; oral 12.5 mg/kg): 0.84 L/h/kg; MRT ([4]; oral 12.5 mg/kg): 45 min; half-life ([4]; oral 12.5 mg/kg, read-out: t^1/2 z (final halflife time)): 20 min; Tmax ([4]; oral 25 mg/kg, average value (range), read-out: tmax (absorption time to the peak) (converted)): 30 min; CL/F ([4]; oral 25 mg/kg): 0.54 L/h/kg; MRT ([4]; oral 25 mg/kg): 53 min; half-life ([4]; oral 25 mg/kg, read-out: t^1/2 z (final halflife time)): 22 min; Tmax ([4]; oral 50 mg/kg, average value (range), read-out: tmax (absorption time to the peak) (converted)): 45 min; CL/F ([4]; oral 50 mg/kg): 0.42 L/h/kg; MRT ([4]; oral 50 mg/kg): 70 min; half-life ([4]; oral 50 mg/kg, read-out: t^1/2 z (final halflife time)): 23 min; Cmax ([4]; oral 12.5 mg/kg): 23 (9) μg/ml; AUC ([4]; oral 12.5 mg/kg, 8 healthy volunteers): 905 (443) μg/ml min; Cmax [4, 6]: 23 (11) μg/ml; AUC [4, 6]: 1271 (560) μg/ml min; Cmax [4, 7]: 20 (7) μg/ml; AUC [4, 7]: 1565 (548) μg/ml min

Which Tmax ([4]; po, about, summary of table 1 and FIG. 1, read-out: maximum peak after the administration) does the source give for `O=C(O)CCCO` [GHBNa, sodium salt of gamma hydroxy butyric acid] here?
The Tmax was 30 to 45 min.

And the half-life ([4]; po, summary of table 1 and FIG. 1, read-out: half life)?
Its half-life is 20 to 25 min.

What about the absorption [4] of the same molecule?
The absorption was “rapidly absorbed”.

What about the absorption ([4]; listed as sodium gamma hydroxy butyrate) of the same molecule?
The absorption was “absorbed quickly”.

And the elimination time ([4]; summary of table 1 and FIG. 1)?
The elimination time was 4 to 5 h.

And the “release of the active substance” value [5]?
Its value is 100%.
